According to patent publication US20220177538A1, “CO-AGONISTS AT GLP-1 AND GIP RECEPTORS SUITABLE FOR ORAL DELIVERY” (Novo Nordisk A/S, priority 2020, published 2022):
Like-named read-outs stand apart in the source and are kept apart here. Marks after values point to notes of the source that are not given here. Starred links: 1 amine or outer side, 2 acyl side, 3 side chain; linkers in the order of their positions; H or OH if unused. Non-standard residues stand in square brackets, D forms with d. Residues, ends and D or L forms follow the SMILES beside them. Groups on a side chain read outwards from the residue. *: point of attachment. C18 diacid = O=C(O)CCCCCCCCCCCCCCCCC(=O)*; γGlu = O=C(O)[C@H](CCC(=O)[*:2])N[*:1]; εLys = N[C@@H](CCCCN[*:1])C(=O)[*:2]; Aib = CC(C)(N)C(=O)O

How the values were obtained:
[1] = Pharmacokinetic study in minipigs after i.v. administration; settings: female, Göttingen, minipig, in vivo, iv
Method: The purpose of this example is to determine the half-life in vivo of the derivatives of the present invention after i.v. administration to minipigs, i.e. the prolongation of their time in the body and thereby their time of action. This is done in a pharmacokinetic (PK) study, where the terminal half-life of the derivative in question is determined. By terminal half-life is generally meant the period of time it takes to halve a certain plasma concentration, measured after the initial distribution phase.
Female Göttingen minipigs were obtained from Ellegaard Göttingen Minipigs (Dalmose, Denmark) approximately 7-14 months of age and weighing from approximately 16-35 kg were used in the studies. The minipigs were housed individually and fed restrictedly once daily with SDS minipig diet (Special Diets Services, Essex, UK).
After at 3 weeks of acclimatisation two permanent central venous catheters were implanted in vena cava caudalis in each animal. The animals were allowed 1 week recovery after the surgery, and were then used for repeated pharmacokinetic studies with a suitable wash-out period between successive derivative dosing.
The animals were fasted for approximately 18 hours before dosing and from 0 to 4 hours after dosing but had adlibitum access to water during the whole period.
The sodium salts of compounds of Examples 1 were dissolved to a concentration of 20-40 nmol/mL in a buffer containing 0.007% polysorbate 20, 50 mM sodium phosphate, 70 mM sodium chloride, pH 7.4. […]
Plasma was pipetted into Micronic tubes on dry ice and kept at −20° C. until analysed for plasma concentration of the compounds using ELISA, or a similar antibody-based assay, or LCMS. Individual plasma concentration-time profiles were analysed by a non-compartmental model in Phoenix WinNonLin ver. […] (Pharsight Inc., Mountain View, Calif., USA), and the resulting terminal half-lives (harmonic mean) determined.

[2] = Pharmacokinetic study in dogs after oral dosing of tablets with SNAC; assay type: in vivo, Beagle dogs; settings: for Tmax / half-life: male
Outline: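 Male beagle dogs (9-17 kg), fasted, received a single oral tablet with 100-300 mg SNAC and 3-4 mg test substance, groups of 6-8.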

[3] = oral tablet, SNAC 300 mg, test substance 3 mg, Beagle dogs, arithmetic mean

Compound	half-life [1] [h]	AUC/Dose ([2]; dog, in vivo, po)	Cmax/Dose ([2]; dog, in vivo, po)	Tmax ([2]; Beagle, dog, in vivo, po) [h]	half-life ([2]; Beagle, dog, in vivo, po) [h]	half-life ([1]; i.v. administration to minipigs, harmonic mean, read-out: Terminal half-life t1/2 (converted)) [h]	half-life ([2]; dog, in vivo, oral tablet, SNAC 300 mg, test substance 3 mg, Beagle dogs, harmonic mean, read-out: t1/2 (converted)) [h]	Tmax ([2]; dog, in vivo, oral tablet, SNAC 300 mg, test substance 3 mg, Beagle dogs, median, read-out: Tmax) [h]	AUC/Dose [2, 3]	Cmax/Dose [2, 3]
CC[C@H](C)[C@H](NC(=O)[C@H](Cc1ccccc1)NC(=O)[C@H](CCC(=O)O)NC(=O)[C@H](CCCNC(=N)N)NC(=O)[C@H](C)NC(=O)[C@H](C)NC(=O)[C@H](CCC(N)=O)NC(=O)[C@H](CCCCNC(=O)[C@@H](N)CCCCNC(=O)[C@@H](N)CCCCNC(=O)CC[C@H](NC(=O)CCCCCCCCCCCCCCCCC(=O)O)C(=O)O)NC(=O)[C@H](CCC(=O)O)NC(=O)[C@H](CC(C)C)NC(=O)[C@H](CC(C)C)NC(=O)[C@@H](NC(=O)[C@H](CO)NC(=O)[C@H](Cc1ccc(O)cc1)NC(=O)[C@H](CC(=O)O)NC(=O)[C@H](CO)NC(=O)[C@@H](NC(=O)[C@H](Cc1ccccc1)NC(=O)[C@@H](NC(=O)CNC(=O)[C@H](CCC(=O)O)NC(=O)C(C)(C)NC(=O)[C@@H](N)Cc1ccc(O)cc1)[C@@H](C)O)[C@@H](C)O)[C@@H](C)CC)C(=O)N[C@@H](CCC(=O)O)C(=O)N[C@@H](Cc1c[nH]c2ccccc12)C(=O)N[C@@H](CC(C)C)C(=O)N[C@@H](CC(C)C)C(=O)N[C@@H](C)C(=O)NCC(=O)NCC(=O)N1CCC[C@H]1C(=O)N[C@@H](CO)C(=O)N[C@@H](CO)C(=O)NCC(=O)N[C@@H](C)C(=O)N1CCC[C@H]1C(=O)N1CCC[C@H]1C(=O)N1CCC[C@H]1C(=O)N[C@@H](CO)C(=O)O [Compound 31] (H-Y[Aib]EGTFTSDYSILLEK([εLys-εLys-γGlu-C18 diacid])QAAREFIEWLLAGGPSSGAPPPS-OH)	49	17.9** kg * h/L	0.35** kg/L	1.3	56					
CC[C@H](C)[C@H](NC(=O)[C@H](Cc1ccccc1)NC(=O)[C@H](CCC(=O)O)NC(=O)[C@H](CCCNC(=N)N)NC(=O)[C@H](C)NC(=O)[C@H](C)NC(=O)[C@H](CCC(N)=O)NC(=O)[C@H](CCCCNC(=O)[C@@H](N)CCCCNC(=O)[C@@H](N)CCCCNC(=O)CC[C@H](NC(=O)CCCCCCCCCCCCCCCCC(=O)O)C(=O)O)NC(=O)[C@H](CCC(=O)O)NC(=O)[C@H](CC(C)C)NC(=O)[C@H](CC(C)C)NC(=O)[C@@H](NC(=O)[C@H](CO)NC(=O)[C@H](Cc1ccc(O)cc1)NC(=O)[C@H](CC(=O)O)NC(=O)[C@H](CO)NC(=O)[C@@H](NC(=O)[C@H](Cc1ccccc1)NC(=O)[C@@H](NC(=O)CNC(=O)[C@H](CCC(=O)O)NC(=O)C(C)(C)NC(=O)[C@@H](N)Cc1ccc(O)cc1)[C@@H](C)O)[C@@H](C)O)[C@@H](C)CC)C(=O)N[C@@H](CCC(=O)O)C(=O)N[C@@H](Cc1c[nH]c2ccccc12)C(=O)N[C@@H](CC(C)C)C(=O)N[C@@H](CC(C)C)C(=O)N[C@@H](CCCNC(=N)N)C(=O)NCC(=O)NCC(=O)N1CCC[C@H]1C(=O)N[C@@H](CCC(=O)O)C(=O)N[C@@H](CO)C(=O)NCC(=O)N[C@@H](C)C(=O)N1CCC[C@H]1C(=O)N1CCC[C@H]1C(=O)N1CCC[C@H]1C(=O)N[C@@H](CO)C(=O)O [Compound 28] (H-Y[Aib]EGTFTSDYSILLEK([εLys-εLys-γGlu-C18 diacid])QAAREFIEWLLRGGPESGAPPPS-OH)						35	67	1.3	18.6** kg * h/L	0.36** kg/L
CC[C@H](C)[C@H](NC(=O)[C@H](Cc1ccccc1)NC(=O)[C@H](CCC(=O)O)NC(=O)[C@H](CCC(N)=O)NC(=O)[C@H](C)NC(=O)[C@H](C)NC(=O)[C@H](CCC(N)=O)NC(=O)[C@H](CCCCNC(=O)[C@@H](N)CCCCNC(=O)[C@@H](N)CCCCNC(=O)CC[C@H](NC(=O)CCCCCCCCCCCCCCCCC(=O)O)C(=O)O)NC(=O)[C@H](CCC(=O)O)NC(=O)[C@H](CC(C)C)NC(=O)[C@H](CC(C)C)NC(=O)[C@@H](NC(=O)[C@H](CO)NC(=O)[C@H](Cc1ccc(O)cc1)NC(=O)[C@H](CC(=O)O)NC(=O)[C@H](CO)NC(=O)[C@@H](NC(=O)[C@H](Cc1ccccc1)NC(=O)[C@@H](NC(=O)CNC(=O)[C@H](CCC(=O)O)NC(=O)C(C)(C)NC(=O)[C@@H](N)Cc1ccc(O)cc1)[C@@H](C)O)[C@@H](C)O)[C@@H](C)CC)C(=O)N[C@@H](CCC(=O)O)C(=O)N[C@@H](Cc1c[nH]c2ccccc12)C(=O)N[C@@H](CC(C)C)C(=O)N[C@@H](CC(C)C)C(=O)N[C@@H](C)C(=O)NCC(=O)NCC(=O)N1CCC[C@H]1C(=O)N[C@@H](CO)C(=O)N[C@@H](CO)C(=O)NCC(=O)N[C@@H](C)C(=O)N1CCC[C@H]1C(=O)N1CCC[C@H]1C(=O)N1CCC[C@H]1C(=O)N[C@@H](CO)C(=O)O [Compound 29] (H-Y[Aib]EGTFTSDYSILLEK([εLys-εLys-γGlu-C18 diacid])QAAQEFIEWLLAGGPSSGAPPPS-OH)	68	16.6** kg * h/L	0.26** kg/L	1.2	69					
